Measured values from PubChem BioAssay (NCI).
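Grown in 96-well plates, cells were treated for 48 hours with each compound at five concentrations. Insufficient inhibition: endpoint recorded as highest concentration tested. Definition used: TGI = concentration required for complete inhibition of growth.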

Key:
Assay in all cases: NCI anticancer screen, dose series, 48 h
COLO 205 colon = tested on: COLO 205 colon
MALME-3M melanoma = tested on: MALME-3M melanoma
LOX IMVI melanoma = tested on: LOX IMVI melanoma
NCI-H226 lung = tested on: NCI-H226 lung
IGROV1 ovarian = tested on: IGROV1 ovarian
EKVX NSCLC = tested on: EKVX NSCLC
SR leukemia = tested on: SR leukemia
RXF 393 renal = tested on: RXF 393 renal
M14 melanoma = tested on: M14 melanoma
CCRF-CEM leukemia = tested on: CCRF-CEM leukemia
OVCAR-8 ovarian = tested on: OVCAR-8 ovarian
DMS 273 small cell lung = tested on: DMS 273 small cell lung
CAKI-1 renal = tested on: CAKI-1 renal
SNB-75 CNS = tested on: SNB-75 CNS
UACC-257 melanoma = tested on: UACC-257 melanoma
A549 NSCLC = tested on: A549 NSCLC
UO-31 renal = tested on: UO-31 renal
NCI-H23 lung = tested on: NCI-H23 lung
SF-539 CNS = tested on: SF-539 CNS
HOP-92 NSCLC = tested on: HOP-92 NSCLC
HOP-62 NSCLC = tested on: HOP-62 NSCLC
SNB-78 CNS = tested on: SNB-78 CNS
HL-60(TB) leukemia = tested on: HL-60(TB) leukemia
OVCAR-3 ovarian = tested on: OVCAR-3 ovarian
SF-295 CNS = tested on: SF-295 CNS
SK-OV-3 ovarian = tested on: SK-OV-3 ovarian
A498 renal = tested on: A498 renal
NCI-H522 lung = tested on: NCI-H522 lung
TK-10 renal = tested on: TK-10 renal
NCI-H460 lung = tested on: NCI-H460 lung
MOLT-4 leukemia = tested on: MOLT-4 leukemia
KM20L2 colon = tested on: KM20L2 colon
HCT-116 colon = tested on: HCT-116 colon
SNB-19 CNS = tested on: SNB-19 CNS
K-562 leukemia = tested on: K-562 leukemia
UACC-62 melanoma = tested on: UACC-62 melanoma
HT29 colon = tested on: HT29 colon
DMS 114 small cell lung = tested on: DMS 114 small cell lung
SN12C renal = tested on: SN12C renal
SK-MEL-2 melanoma = tested on: SK-MEL-2 melanoma
OVCAR-5 ovarian = tested on: OVCAR-5 ovarian
SF-268 CNS = tested on: SF-268 CNS
HCC-2998 colon = tested on: HCC-2998 colon
ACHN renal = tested on: ACHN renal
DLD-1 colon = tested on: DLD-1 colon
LXFL 529 NSCLC = tested on: LXFL 529 NSCLC
U251 CNS = tested on: U251 CNS
786-0 renal = tested on: 786-0 renal
SW-620 colon = tested on: SW-620 colon
HOP-18 NSCLC = tested on: HOP-18 NSCLC
SK-MEL-5 melanoma = tested on: SK-MEL-5 melanoma
SK-MEL-28 melanoma = tested on: SK-MEL-28 melanoma
HCT-15 colon = tested on: HCT-15 colon
OVCAR-4 ovarian = tested on: OVCAR-4 ovarian
KM12 colon = tested on: KM12 colon
M19-MEL melanoma = tested on: M19-MEL melanoma
RPMI-8226 leukemia = tested on: RPMI-8226 leukemia

Measured: TGI

Cc1ccc(Oc2ccc(C(=O)c3cccc(C(=O)c4ccc(Oc5ccc(C)cc5)cc4)n3)cc2)cc1
not listed: M19-MEL melanoma | RPMI-8226 leukemia
> 100 µM: all other assays above

COc1nc(=O)cc(N)n1C1OC(CO)C(O)C1O (stereo not drawn)
not listed: SR leukemia | HOP-92 NSCLC | HOP-18 NSCLC | OVCAR-4 ovarian
> 100 µM: all other assays above
